The values below come from patent publication US20260317319A1, “NOVEL ERGOLINES AND METHODS OF TREATING MOOD DISORDERS” (Gilgamesh Pharma Inc., priority 2023, published 2026).

pEC50: −log10 of the molar value. Like-named read-outs stand apart in the source and are kept apart here.

Data set [1] can be described thus: in vitro. The data set is classed as in vitro ADME, mouse. The text has this: MLM Stability Pooled MLM from male CD-1 mice (BIOIVT M00501) were used.
Data set [2] has as its target T1, 5-HT2A receptor (Homo sapiens, UniProt P28223). Briefly: cell-based. In kind it is cell-based. The settings on record: for Emax: read-out: 5-HT2A Arrestin % Act @ Max Dose; for pEC50: PathHunter, read-out: 5-HT2A Arrestin EC50. The method, boiled down:
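Agonist activity expressed as percent of maximal control ligand signal after vehicle subtraction, from chemiluminescence (RLU). Cells carry ProLink-tagged 5-HT2A plus β-arrestin fused to β-gal deletion mutant; ligand-driven arrestin binding restores β-galactosidase activity (PathHunter). Cells pre-incubated at 37° C.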

Data set [3] deals with T1, 5-HT2A receptor. Description: cell-based. On the set-up: expressed in transfected cells; host or cells: HEK293, stably transfected. In kind it is cell-based. The method, boiled down: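 Using HEK293 lines for the 5-HT2 subtypes and Gα15-coupled CHO cells for 5-HT1A, compounds were tested as agonists. Fluorescent Ca2+ signal followed dye loading (Fluo-4 Direct, 2.5 mM final probenecid, 50 min, 37 °C).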

A short description of data set [4]: in vitro. The data set is classed as in vitro ADME, rat. The text has this: RLM Stability Pooled RLM from male Sprague-Dawley rats (Xenotech R1000) were used.
A further data set concerns the target T2, 5-HT1A receptor (Homo sapiens, UniProt P08908).
T2 construct: expressed in transfected cells; host or cells: CHO cells, stably transfected
T2 sequence (P08908 1-422): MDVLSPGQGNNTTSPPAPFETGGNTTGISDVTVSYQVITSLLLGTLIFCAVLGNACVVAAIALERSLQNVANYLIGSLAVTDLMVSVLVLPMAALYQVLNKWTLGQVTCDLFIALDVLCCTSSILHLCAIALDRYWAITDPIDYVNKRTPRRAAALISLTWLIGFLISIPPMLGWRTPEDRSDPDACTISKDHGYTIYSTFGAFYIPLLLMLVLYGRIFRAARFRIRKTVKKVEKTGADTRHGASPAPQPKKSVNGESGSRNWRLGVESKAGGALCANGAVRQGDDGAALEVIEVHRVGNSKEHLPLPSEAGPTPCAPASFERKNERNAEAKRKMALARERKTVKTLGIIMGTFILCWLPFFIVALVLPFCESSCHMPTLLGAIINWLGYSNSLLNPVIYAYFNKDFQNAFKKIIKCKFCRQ
Briefly: cell-based. The settings on record: CHO, read-out: 5-HT1A % Act @ Max Dose. The method, boiled down: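 Receptor agonism was assessed as intracellular calcium mobilization in stably transfected cells, with CHO cells additionally carrying Gα15 for the 5-HT1A readout. Calcium was monitored with Fluo-4 Direct dye.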

The nature of data set [5]: in vitro. The data set is classed as in vitro ADME, human.
In another data set the target is T3, 5-HT1B receptor (Homo sapiens, UniProt P28222).
T3 construct: expressed in transfected cells
Description: cAMP accumulation functional assay at 5-HT1B. The data set is classed as cell-based. The settings on record: for Emax: read-out: 5-HT1B % Act @ Max Dose; for selectivity for 5-HT2A over 5-HT1B: functional, compared to the N-methyl prototype LSD. In outline:
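Stably transfected human 5-HT1B cells were incubated 60 min at room temperature, after which detection reagent was applied for another 60 min at RT. The read-out was cAMP accumulation, used as a measure of agonist activity.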
A general note: Cyclic AMP is a second messenger, typically raised through Gs and lowered through Gi signalling.

The next data set addresses T4, 5-HT2B receptor (Homo sapiens, UniProt P41595).
T4 construct: expressed in transfected cells; host or cells: HEK293, stably transfected
Briefly: cell-based. In kind it is cell-based. In outline:
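FLIPR Tetra fluorescence read-out of calcium flux after compound addition. Receptor-expressing stable lines were used (HEK293 for 2A/2B; CHO with Gα15 for 1A), dye-loaded with Fluo-4 Direct and 2.5 mM final probenecid, 50 min at 37 °C.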

Where [6] appears, read: MLM (male CD-1) 0.50 mg/mL, NADPH 1 mM, 1 μM compound, pH 7.4, 37° C., 60 min.
Where [7] appears, read: agonist, beta-arrestin recruitment, max dose.
Where [8] appears, read: HEK293, agonist, Ca2+ flux, HEK293, max dose, read-out: 5-HT2A % Act @ Max Dose.
[9] abbreviates: RLM (male Sprague-Dawley) 0.50 mg/mL, NADPH 1 mM, 1 μM compound, pH 7.4, 37° C., 60 min.
Setting [10] is: agonist, Ca2+ flux, CHO cells with Gα15, max dose.
Setting [11] is: HLM 0.50 mg/mL, NADPH 1 mM, 1 μM compound, pH 7.4, 37° C., 60 min.
Where [12] appears, read: agonist, cAMP accumulation, max dose.
The mark [13] stands for this setting: HEK293, agonist, Ca2+ flux, HEK293, max dose, read-out: 5-HT2B % Act @ Max Dose.
Setting [14] is: agonist, beta-arrestin recruitment.

T4 sequence (P41595 whole entry): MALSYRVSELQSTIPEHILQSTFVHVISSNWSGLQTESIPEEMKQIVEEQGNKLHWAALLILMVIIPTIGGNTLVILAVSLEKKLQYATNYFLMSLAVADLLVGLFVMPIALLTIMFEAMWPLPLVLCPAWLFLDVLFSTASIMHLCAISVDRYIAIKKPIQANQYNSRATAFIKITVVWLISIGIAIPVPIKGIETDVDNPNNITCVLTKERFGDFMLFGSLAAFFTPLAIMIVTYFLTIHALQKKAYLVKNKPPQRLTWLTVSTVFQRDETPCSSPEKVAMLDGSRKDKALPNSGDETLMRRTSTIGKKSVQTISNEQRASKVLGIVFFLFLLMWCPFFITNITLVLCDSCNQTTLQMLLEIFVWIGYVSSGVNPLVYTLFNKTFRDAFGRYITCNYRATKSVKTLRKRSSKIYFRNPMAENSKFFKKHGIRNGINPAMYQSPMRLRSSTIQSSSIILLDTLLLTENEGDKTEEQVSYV
T1 sequence (P28223 whole entry, the tested form may be a part): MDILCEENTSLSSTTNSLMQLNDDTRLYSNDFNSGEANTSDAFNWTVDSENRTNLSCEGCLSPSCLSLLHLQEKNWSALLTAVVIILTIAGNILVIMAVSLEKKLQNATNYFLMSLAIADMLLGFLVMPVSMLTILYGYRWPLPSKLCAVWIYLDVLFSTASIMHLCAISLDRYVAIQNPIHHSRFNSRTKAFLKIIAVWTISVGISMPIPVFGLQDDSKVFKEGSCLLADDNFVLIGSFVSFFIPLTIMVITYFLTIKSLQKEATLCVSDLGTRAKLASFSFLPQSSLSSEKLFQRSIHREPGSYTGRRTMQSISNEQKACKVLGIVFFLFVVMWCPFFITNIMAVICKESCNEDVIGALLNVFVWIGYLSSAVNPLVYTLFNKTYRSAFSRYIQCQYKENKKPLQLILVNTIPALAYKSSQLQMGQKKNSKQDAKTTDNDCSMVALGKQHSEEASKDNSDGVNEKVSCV
T3 sequence (P28222 whole entry): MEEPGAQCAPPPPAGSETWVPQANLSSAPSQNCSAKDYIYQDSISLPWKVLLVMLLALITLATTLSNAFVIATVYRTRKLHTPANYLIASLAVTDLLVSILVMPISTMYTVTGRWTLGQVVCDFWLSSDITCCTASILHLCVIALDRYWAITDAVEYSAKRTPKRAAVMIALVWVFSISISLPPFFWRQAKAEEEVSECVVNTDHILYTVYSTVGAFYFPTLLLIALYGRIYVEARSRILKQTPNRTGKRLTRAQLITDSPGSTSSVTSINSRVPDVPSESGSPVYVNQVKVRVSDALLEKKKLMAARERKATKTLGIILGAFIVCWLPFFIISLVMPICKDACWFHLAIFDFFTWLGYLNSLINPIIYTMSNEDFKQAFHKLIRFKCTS

As for `CCCN1C[C@H](C(=O)N2[C@@H](C)C[C@@H]2C)C=C2c3cccc4[nH]cc(c34)C[C@H]21` [Compound 4, ((2S,4S)-2,4-dimethylazetidin-1-yl)((6aR,9R)-7-propyl-4,6,6a,7,8,9-hexahydroindolo[4,3-fg]quinolin-9-yl)methanone], the “stability in MLM” value in the data set “in vitro [1]” is “much lower stability (higher clearance)”. Besides, the “half-life (t1/2)” value in “in vitro [1]” (setting [6]) turned out to be 0.8 min; in “in vitro [4]” (setting [9]), 12.8 min; in “in vitro [5]” (setting [11]) it was 10.6 min. The Emax on 5-HT2A receptor [2] (setting [7]) is 117%; on 5-HT2A receptor [3] (setting [8]) it was 97.6%; on 5-HT1A receptor (setting [10]), 123%; at 5-HT1B receptor (setting [12]), 96%; on 5-HT2B receptor (setting [13]), 87.5%. At 5-HT2A receptor [2] (beta-arrestin recruitment), the “5-HT2A arrestin agonist class” value is reported as “full agonists”. Further, the “stability in RLM” value in “in vitro [4]” is “much lower stability (higher clearance)”. The “stability in HLM” value in the data set “in vitro [5]” is “much lower stability (higher clearance)”. On 5-HT1B receptor, the “selectivity for 5-HT2A over 5-HT1B” value is given as “greater selectivity for 5-HT2A over 5-HT1B”. Further, at 5-HT2B receptor (functional, compared to closest N-methyl counterparts Int8, Int11, Int17), the “selectivity for 5-HT2A over 5-HT2B” value is “more selective for 5-HT2A over 5-HT2B”.
Consider `CCCN1C[C@H](C(=O)NC(CC)CC)C=C2c3cccc4[nH]cc(c34)C[C@H]21` [Compound 6, (6aR,9R)—N-(pentan-3-yl)-7-propyl-4,6,6a,7,8,9-hexahydroindolo[4,3-fg]quinoline-9-carboxamide], for which, in the data set “in vitro [1]”, the “stability in MLM” value was “much lower stability (higher clearance)”. Moreover, the “half-life (t1/2)” value in “in vitro [1]” (setting [6]) worked out at 0.6 min; in “in vitro [4]” (setting [9]), 1.655 min; in “in vitro [5]” (setting [11]), 1.607 min. For the same molecule, the Emax came to 103% at 5-HT2A receptor [2] (setting [7]); 94.6% on 5-HT2A receptor [3] (setting [8]); 102% at 5-HT1A receptor (setting [10]); 94.6% on 5-HT1B receptor (setting [12]); 92.9% at 5-HT2B receptor (setting [13]). In addition, the “5-HT2A arrestin agonist class” value on 5-HT2A receptor [2] (beta-arrestin recruitment) is given as “full agonists”. Also, the “stability in RLM” value in the data set “in vitro [4]” is recorded as “much lower stability (higher clearance)”. The “stability in HLM” value in “in vitro [5]” is reported as “much lower stability (higher clearance)”. The “selectivity for 5-HT2A over 5-HT1B” value on 5-HT1B receptor is recorded as “greater selectivity for 5-HT2A over 5-HT1B”.
Take `CCN(CC)C(=O)[C@@H]1C=C2c3cccc4[nH]cc(c34)C[C@H]2N(Cc2ccccc2OC)C1` [Compound 10, (6aR,9R)—N,N-diethyl-7-(2-methoxybenzyl)-4,6,6a,7,8,9-hexahydroindolo[4,3-fg]quinoline-9-carboxamide]: the “stability in MLM” value in “in vitro [1]” is “much lower stability (higher clearance)”. Besides, the “Intrinsic clearance (Clint)” value in “in vitro [1]” (setting [6]) was 1396.8 µL/min/mg; in “in vitro [4]” (setting [9]), 407.4 µL/min/mg; in the data set “in vitro [5]” (setting [11]), 190.3 µL/min/mg. Besides, the “half-life (t1/2)” value in the data set “in vitro [1]” (setting [6]) is listed as 1 min; in the data set “in vitro [4]” (setting [9]), 3.4 min; in “in vitro [5]” (setting [11]), 7.3 min. The Emax came to 47.1% on 5-HT2A receptor [2] (setting [7]); 49.4% on 5-HT2A receptor [3] (setting [8]); 53% at 5-HT1A receptor (setting [10]); 87.3% on 5-HT1B receptor (setting [12]); 2% at 5-HT2B receptor (setting [13]). For the same molecule, in the data set “in vitro [4]”, the “stability in RLM” value is listed as “much lower stability (higher clearance)”. Besides, the “stability in HLM” value in “in vitro [5]” is “much lower stability (higher clearance)”.
On to `CCN(CC)C(=O)[C@@H]1C=C2c3cccc4[nH]cc(c34)C[C@H]2N(Cc2cccc(OC)c2)C1` [Compound 18, (6aR,9R)—N,N-diethyl-7-(3-methoxybenzyl)-4,6,6a,7,8,9-hexahydroindolo[4,3-fg]quinoline-9-carboxamide], for which the entries for the “Intrinsic clearance (Clint)” value in the data set “in vitro [1]” (setting [6]), in “in vitro [4]” (setting [9]) and in the data set “in vitro [5]” (setting [11]) were 523.7 µL/min/mg, 262.8 µL/min/mg and 101.7 µL/min/mg, respectively. For the same molecule, the “half-life (t1/2)” value in the data set “in vitro [1]” (setting [6]) turned out to be 2.6 min; in the data set “in vitro [4]” (setting [9]), 5.3 min; in the data set “in vitro [5]” (setting [11]), 13.6 min. Further, the pEC50 (in general, −log10 of the EC50, conventionally taken in molar units) on 5-HT2A receptor [2] (setting [14]) is 8.37. Besides, the Emax amounted to 89.6% on 5-HT2A receptor [2] (setting [7]); 61.1% at 5-HT2A receptor [3] (setting [8]); 28.9% at 5-HT1A receptor (setting [10]); 83.3% at 5-HT1B receptor (setting [12]); 4.69% on 5-HT2B receptor (setting [13]).
For `CCN(CC)C(=O)[C@@H]1C=C2c3cccc4[nH]cc(c34)C[C@H]2N(Cc2ccc(OC)cc2)C1` [Compound 19, (6aR,9R)—N,N-diethyl-7-(4-methoxybenzyl)-4,6,6a,7,8,9-hexahydroindolo[4,3-fg]quinoline-9-carboxamide], the “Intrinsic clearance (Clint)” value turned out to be 192.7 µL/min/mg in the data set “in vitro [1]” (setting [6]), 139.0 µL/min/mg in “in vitro [4]” (setting [9]) and 82.7 µL/min/mg in “in vitro [5]” (setting [11]). Moreover, the “half-life (t1/2)” value came to 7.2 min in the data set “in vitro [1]” (setting [6]), 10.0 min in the data set “in vitro [4]” (setting [9]) and 16.8 min in “in vitro [5]” (setting [11]). Besides, the pEC50 on 5-HT2A receptor [2] (setting [14]) was 7.87. The Emax at 5-HT2A receptor [2] (setting [7]) is 42.3%; at 5-HT2A receptor [3] (setting [8]) it was 70.5%; on 5-HT1A receptor (setting [10]), -0.65%; at 5-HT1B receptor (setting [12]) it was 71.1%; at 5-HT2B receptor (setting [13]), 2.44%.
As for `CCN(CC)C(=O)[C@@H]1C=C2c3cccc4[nH]cc(c34)C[C@H]2N(C)C1` [LSD, lysergic acid diethylamide, reference compound], the “half-life (t1/2)” value in the data set “in vitro [1]” (mouse, microsomes, pH 7.4) came out at 31.3 min; in “in vitro [4]” (rat, microsomes, pH 7.4), 60.2 min; in the data set “in vitro [5]” (human, microsomes, pH 7.4) it was 71.6 min. Besides, the “5-HT2A arrestin agonist class” value on 5-HT2A receptor [2] is given as “partial agonists”. Further, the Emax turned out to be 52.6% on 5-HT2A receptor [2]; 108% on 5-HT2A receptor [3] (HEK293, read-out: 5-HT2A % Act @ Max Dose); 91.4% at 5-HT1A receptor; 98% at 5-HT1B receptor; 19.3% on 5-HT2B receptor (HEK293, read-out: 5-HT2B % Act @ Max Dose).
